Measured values reported in patent US8198317B2, “Methylenedioxy phenolic compounds and their use to treat disease” (The Ohio State University Research Foundation, priority 2008, dated 2012).

How the values were obtained:
[1] = system: p65 subunit of NF-κB; test: NF-κB translocation assay in HUVECs; format: cell-based, human; conditions: HUVEC
Source text: NF-κB Translocation Assays: Cytokines such as TNF-α and interleukin-1 (IL-1) activate a pro-inflammatory response in endothelial cells. An early event in this response is nuclear translocation of the NF-κB transcription factor. This translocation causes the transcription of pro-inflammatory genes such as adhesion molecules VCAM-1, ICAM-1 and E-Selectin to be induced.
NF-κB is a heterodimer, composed of p65 and p50 subunits. Nuclear translocation is monitored by immunolocalization of the p65 subunit of NF-κB in fixed cells and is quantified by measuring the ratio of nuclear to cytoplasmic NF-κB signal. The nuclear translocation of NF-κB in stimulated cells such as primary human umbilical vein endothelial cells (HUVECs) therefore provides a readout that can be used to study the effects of bioactive compounds on the responsiveness of endothelium to pro-inflammatory stimuli. HUVECs were pre-treated with INV-75 at various concentrations (10 nM to 1 μM) or control (without [INV-75) for 24 hours. The media was then changed to one containing 10 ng/ml TNFα, or 1 μg/ml bovine serum albumin (vehicle) for 6 hours. p65 distribution was calculated as intensity in the cytoplasm and nucleus in regions of interest. At least 5 cells per high power field were used and at least 5 high power fields per concentration of the drug were used. The intensities were then expressed as the ratio of nuclear to cytoplasmic staining at least 5 cells per high power field. The data was then expressed as a ratio of the nuclear to cytoplasmic ratio without TNF-α.
In alternate experiments to assess NF-κB Activation extraction reagents were used to extract nuclear and cytoplasmic fraction from HUVEC cells previously treated with INV-75 at various concentrations for 6-24 hours before being stimulated with 2 ng/mL TNF-α for 6 hours. The expression of VCAM-1 and ICAM-1 were evaluated after TNF-α stimulation for 6 hours stimulation by western blot analysis. The p65 level in nuclear and cytoplasmic extracts were then analyzed by western blotting as described above.

[2] = system: Patient; test: Treatment of a patient with chronic stable angina (Example 20); format: in vivo, human; conditions: oral, 1.0 to 100 mg/kg, two weeks
Procedure: A person with a prior history of a heart attack (myocardial infarction) 10 years ago presents for evaluation. They are complaining of anginal chest pains that are relived with one sub-lingual nitroglycerin and has had these pains chronically. The patient is administered a composition comprising an effective amount of oral 3,4-Methylenedioxy 6-nitro phenyl lipoate (INV-7465) (1.0 to 100 mg/kg). Alternate therapies include, 3,4-methylenedioxy phenyl acetate (INV 73); 3,4-methylenedioxy-6-nitrophenol (INV 74); 3,4-methylenedioxy-6-nitrophenyl acetate (INV 75); or 3,4-Methylenedioxy phenyl lipoate (INV-7065). Patient notes added benefit in their chest pains with this regimen after taking the medication for two weeks.

[3] = system: VCAM-1; test: VCAM-1 western blot in TNFα treated HUVECs; format: cell-based, human
Procedure: FIG. 25 is a graph showing VCAM-1 protein expression level as a cellular correlate of inflammation. INV-75 inhibits TNFα induced VCAM-1 expression in HUVECs. HUVECs were pretreated with vehicle, INV75, or WY-14643 for 2 hours, and then treated with TNFα for 4 hours. VCAM-1 expression was analyzed by Western blot. A representative and summary of three independent experiments are presented. *, p<0.05 vs control; #, p<0.05 vs TNFα.
In subsequent experiments we also tested the effects of INV-75 on VCAM-1 expression by western blot.
We have also examined the effects of INV-75 in cell culture to understand its effects on regulation of the adhesion molecule VCAM-1. We had previously shown that iNV-75 reduced NF-kB activation and expression of VCAM-1 and ICAM-1 in HUVEC cells (see FIG. 3 and FIG. 4). […] HUVECs were pretreated with vehicle, INV-75, or WY-14643 for 2 hours, and then treated with TNFα for 4 hours. VCAM-1 expression was analyzed at the end of this duration. A representative and summary of three independent experiments are presented. *, p<0.05 vs control; #, p<0.05 vs TNFα (FIG. 25).

[4] = target: T1, PPARδ (Homo sapiens, UniProt Q03181); test: GAL4-PPARδ-LBD luciferase assay in HepG2 cells; format: cell-based; conditions: 1 μM to 1000 μM
T1 construct: GAL4-PPARδ-LBD plasmid+UAS-Luciferase; expressed in transfected cells; host or cells: HepG2
T1 sequence (Q03181 211-439 limits assumed, species assumed): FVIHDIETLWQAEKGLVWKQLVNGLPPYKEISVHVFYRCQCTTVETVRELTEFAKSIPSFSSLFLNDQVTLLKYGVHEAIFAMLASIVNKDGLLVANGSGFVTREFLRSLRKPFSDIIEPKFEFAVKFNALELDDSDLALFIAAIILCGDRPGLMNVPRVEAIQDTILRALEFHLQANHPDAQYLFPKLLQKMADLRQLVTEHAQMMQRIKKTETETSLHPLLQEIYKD
Source text: We used a reporter gene assay in HepG2 cells to screen for agonists of the peroxisome proliferator-activated receptors. Peroxisome proliferator-activated receptors (PPARs) and other members of the nuclear hormone receptor family are important drug targets for the treatment of metabolic diseases. PPARs play crucial roles in lipid and glucose metabolism, respectively. Therefore, screening methods that help to rapidly identify activators of these receptors should be of considerable value. INV-75 activated a classic PPARα gene, Acetyl-CoA Oxidase (ACO) in a dose dependent and time dependent fashion (FIG. 6A). The time course experiment was performed in presence of INV-75 up to 15 hours. […] We next tested the specificity of INV-75 for PPARα by performing experiments in HepG2 cells transfected with yeast GAL4-PPARα-LBD plasmid+UAS-Luciferase; GAL4-PPARδ-LBD plasmid+UAS-Luciferase and […]. The PPARα, PPARδ and PPARγ binding assays were performed using multiple concentrations of INV-75 (1 μM, 10 μM, 100 μM and 1000 μM). The level of luciferase activity corresponded to the degree of PPAR activation. The results were compared with classic PPAR agonists such as WY-14643 (PPARα agonist), Bezafibrate (PPARδ agonist) and Rosiglitazone ([…]).

[5] = system: Watanabe Heritable Hyperlipidemic Rabbits (WHHL); test: Blood lipid profile in WHHL rabbits; format: in vivo, rabbit; conditions: end of treatment
Procedure: Hypercholesterolemia and oxidative stress occupy an important function in the progress of atherosclerosis. Lipids (cholesterol and LDL) in the blood were evaluated by analyzing the blood samples both at the baseline and the end point measurements. 1 ml of blood from an ear lobe vein was placed into K EDTA tubes at a start of high cholesterol diet and again at the time of sacrifice. All values were expressed as mean±SD. The bar graph of each group for total cholesterol and LDL cholesterol at baseline prior to the initiation of high fat chow, following high fat chow but before intervention and at the end of intervention with INV-75 and control are presented. (FIG. 14 A and FIG. 14B). […] The lack of effect may relate to the genetic model (WHHL) which has extremely high lipid values and a mutation in the LDL receptor. Since INV 75 is believed to function by increasing LDL clearance through an increase in LDL receptor expression, the lack of effect on LDL cholesterol and total cholesterol (major lipoprotein fraction in this model at baseline and in response to high fat chow feeding) is understandable.

[6] = system: Watanabe Heritable Hyperlipidemic Rabbits (WHHL); test: Superoxide by dihydroethidium staining of WHHL aorta sections; format: in vivo, rabbit

Compound | ratio of nuclear to cytoplasmic staining of p65 ([1]; TNF-α, at all the concentrations tested) | chest pains [2] | TNFα induced VCAM-1 expression ([3]; HUVECs pretreated 2 hours, then TNFα 4 hours) | VCAM-1 protein levels by western blot ([3]; pre-treatment versus control (vehicle)) | nuclear p65 expression (nuclear to cytoplasmic ratio) ([1]; 24 hours pre-treatment, then TNF-α, n=3) | concentration from which translocation of p65 to the nucleus is inhibited ([1]; TNF-α stimulated) [nM] | effects on PPARδ [4] | LDL cholesterol [5] | total cholesterol [5] | basal super oxide production in the aorta (DHE) [6]
O=C(CCCCC1CCSS1)Oc1cc2c(cc1[N+](=O)[O-])OCO2 (stereo not shown) [INV-7465, 3,4-Methylenedioxy 6-nitro phenyl lipoate] | decrease | added benefit | – | – | – | – | – | – | – | –
CC(=O)Oc1cc2c(cc1[N+](=O)[O-])OCO2 [INV-75, 3,4-methylenedioxy-6-nitrophenyl acetate] | – | – | inhibits | reduction | marked inhibition | ≥ 10 | without effects | no differences | no differences | reduction
